Assay: CO release in vivo (CO-hemoglobin in blood by oximeter)
Details: Balb/c mice, intraperitoneal, 100, 25 and 6.25 mg/kg, propylene glycol-water; 0, 30, 120 (330) minutes
Experimental: Nine week old Balb/c mice with a body weight of about 20 g were injected by the intraperitoneal route with Compound I.1 dissolved in a propylene glycol-water mixture. Three doses (100, 25 and 6.25 mg/kg) were used. At various times after the administration of the Compound I.1 blood was collected and CO-hemoglobin levels were determined using an oximeter.
Compound I.1 was administered intraperitonally to mice at a concentration of 100 mg/kg using propylene glycol/water ca.˜2:1 as vehicle. The amount of COHb (carboxyhemoglobin) was monitored with an oximeter in blood samples withdrawn at 0, 30, 120 and 330 minutes after administration. The results are shown in FIG. 9 and show a peaked level of CO after 30 minutes followed by a slow decline.
Compound I.1 was encapsulated in methylated β-cyclodextrin, 2,3,6-tri-O-methyl-β-cyclodextrin, known in the art as TRIMEB, by a standard technique. The encapsulated Compound I.1@TRIMEB (“@” means “encapsulated in”) was administered intraperitonally to mice at a concentration of 30 mg/kg using phosphate buffered saline (PBS) as vehicle. The amount of COHb (carboxyhemoglobin) was monitored with an oximeter in blood samples withdrawn after 30, 60, 90 and 120 minutes after administration.

O=[C][Mo]([Br])([C]=O)([C]=O)([C]=O)[C]=O [Compound I.1]
CO-hemoglobin level time course: increase in CO levels during the first time interval, followed by a slow decline
